The text below walks through data of a melting point compilation (Tetko et al.; mined from patent text by program, amines drawn as free bases though some values may be those of a salt).

As to `CON1C=C2N=NC3=C(N2C1)N(c1ccccn1)CC(C1CC1)=C3`, the melting point is 162 to 164 °C.
`CC(C)c1ccc(N(Cc2ccc(N(C)C)cc2)C(=O)C2CCCc3cc(OCCO)ccc32)cc1` (stereo unspecified): the melting point turned out to be 141 °C.
The result for `CCn1nc2c(n1)C(N1CCN(C)CC1)=Nc1cc(Cl)ccc1N2` reads 180 to 182 °C; that for `O=[N+]([O-])c1ccc2[nH]cc(Cc3cccnc3)c2c1`, 154 to 156 °C.
The result for `CC(=O)Nc1cccc(C(=O)N[C@@H](C)C(=O)N2CCC[C@H]2C(=O)O)c1C(=O)O` reads 127 to 128 °C; that for `Fc1ccc(N2CCN(c3cccc(C(F)(F)F)c3)CC2)nn1`, 132 °C.
`C=CC(=O)OCCOc1ccc(-c2nc(-c3ccc(Cl)cc3)nc(-c3ccc(OCCOC(=O)C=C)cc3O)n2)c(O)c1` had a melting point of 115 to 120 °C.
The result for `O=[N+]([O-])c1cc(Cl)c(Oc2ccc(Cl)c3ccccc23)c(Cl)c1` reads 145 to 147 °C; that for `NC(=O)c1c(I)cc(I)c(C(N)=O)c1I`, 245 to 248 °C.
The result for `COc1cc(OC)c(-c2cc3ccccc3n2C(=O)OC(C)(C)C)cc1/C=C/C(=O)c1ccc(S(N)(=O)=O)cc1` reads 120 to 122 °C.
The result for `Cn1c(CO)c(-c2ccccc2)c2ccccc2c1=O` reads 159 to 161 °C; that for `COc1ccc(Cn2cnc3c(-c4ccco4)ncnc32)cc1`, 175 to 176 °C; that for `CCCCCCCCCCCCc1c2c(=O)c3cc(Br)ccc3c2c(CCCCCCCCCCCC)c2c(=O)c3cc(Br)ccc3c12`, 122 to 123 °C.
Turning to `Cc1nnc(-c2ccc3occ(-c4ccc(S(C)(=O)=O)c(C)c4)c3c2)o1`, the melting point was in the range of 173 to 174 °C.
The result for `O=Cc1ccc(Cl)c(-c2ccccc2)c1` reads 84 °C; that for `CCc1ccc(Cc2cn(C3OC(COC(=O)c4ccccc4)C(O)C(OC(=O)c4ccccc4)C3OC(=O)c3ccccc3)c3cccc(Cl)c23)cc1` (stereo unspecified), 192 to 193 °C.
As for `CCOC(=O)c1c[nH]cc1-c1ccccc1[N+](=O)[O-]`, the figure is 159 to 161 °C; as for `Clc1ccc(OCC2CO2)c(OCc2ccccc2)c1Cl` (stereo unspecified), 65 °C; as for `O=C(Nc1cccc(S(=O)(=O)NC2CC2)c1)c1cnn2c(C(F)(F)F)cc(-c3ccc(C(F)(F)F)cc3)nc12`, 232 °C.
The result for `N#CC[C@H](O)Cc1cc2ccccc2[nH]1` reads 92 to 93 °C; that for `O=C(Nc1nccs1)c1cnc2c(C(F)(F)F)cccc2c1O`, 325 °C; that for `CCOC(=O)c1ccc(Oc2ccc(F)cc2)nc1`, 68 °C.
Compound `CNC1NC(=O)N(C)C(=O)N1N` (stereo unspecified) returned a melting point of 225 to 227 °C.
As for `Cc1oc(-c2ccccc2)nc1COc1ccc(COc2ccc(OCc3ccccc3)cc2CC#N)cc1`, the melting point was in the range of 130 to 131 °C.
As for `CCOP(=S)(OCC)Oc1nsc(SCc2ccccc2)n1`, the figure is below 50 °C; as for `COc1ccccc1N1CCN(C(=O)c2ccccc2C(c2ccc(OC(C)C)cc2)c2ccc(OC(C)C)cc2)CC1`, 120 to 121 °C; as for `O=C1c2cccc(O)c2C(=O)c2sc(-c3ccccc3)nc21`, 264 °C.
The result for `O=C(NCc1ccc(Cl)cc1)c1ccc2sccc2c1O` reads 168 to 169 °C.
As for `CCCCc1nn(-c2cc(NC(C)=O)ccc2Cl)c(=O)n1Cc1ccc(-c2cc(CCC)ccc2S(=O)(=O)NC(C)(C)C)cc1F`, the figure is 125 to 128 °C; as for `COc1ccc(Oc2ccc(/C=C/C(=O)O)cc2)cc1`, 165 to 167 °C.
For the compound `COc1cccc(C=CC(=O)c2c(OCC=C(C)C)ccc3c(=O)c4ccccc4oc23)c1`, the melting point was 134 to 136 °C.
As for `OC1c2ccccc2Sc2ccccc21`, the figure is 102 to 105 °C; as for `COc1ccc(CCc2ccc(NC(=O)C(=O)c3ccccc3O)cc2)cc1OC`, 124 to 125 °C; as for `CC(C)CC(C=O)NC(=O)C(Cc1c[nH]cn1)NC(=O)C(CNC(=O)Cc1cccc2ccccc12)Cc1ccccc1` (stereo unspecified), 105 to 109 °C.
As for `O=S(=O)(Cc1ccccc1)c1ncc(Cl)cn1`, the figure is 122 to 124 °C.
As for `N=C(NCc1ccncc1)NN=Cc1c(Cl)cccc1Cl`, the figure is 159 to 161 °C; as for `COc1cc(Cl)c(N=C2NCCN2O)c(Cl)c1`, 199 to 201 °C.
Regarding `CC(C)Oc1cc(/C=C/C(=O)O)n(Cc2ccc(Cl)cc2Cl)n1`, the melting point fell in the range of 170 to 171 °C.
As for `CC(=O)n1cc(C#N)c(-c2ccccc2C(F)(F)F)c1`, the figure is 67 to 69 °C; as for `Cc1cn(-c2cc(C=O)c(N)c(C(F)(F)F)c2)c(C)n1`, 200 to 202 °C.
With `COC(C)n1cc(C2=C(c3cn(C(C)OC)c4ccccc34)C(=O)NC2=O)c2ccccc21` (stereo unspecified), the melting point is 222 to 224 °C.
As for `CCCCN(CCCC)CCCOc1ccc(-c2cn3cccc(C)c3n2)cc1OC`, the figure is 127 to 130 °C.
For `Fc1cnc(Nc2cccnc2)nc1Nc1ccc2c(c1)OCCO2`, the melting point was in the range of 251 to 253 °C.
As for `COC(=O)CCCNC(=O)C[C@H]1O[C@H](c2cccc(OC)c2OC)c2cc(Cl)ccc2N(CC(C)(C)CO)C1=O`, the figure is 78 to 80 °C; as for `C=CC(C)n1ncc(-c2ccc(S(C)(=O)=O)cc2)c(-c2ccc(F)cc2)c1=O` (stereo unspecified), 140 to 142 °C.
The result for `CC(C)Oc1ccc(-n2c(C(=O)O)c(Cl)c3cc(Oc4ccc(C(F)(F)F)cc4)ccc32)cc1` reads 148 to 150 °C; that for `CC(C)(C)OC(=O)N1CCC2(CC1)C(=O)NCN2c1ccccc1`, 213 to 214 °C; that for `O=c1[nH]c2ccc(C(F)(F)F)cc2c(-c2cc(Cl)ccc2O)c1NS(=O)(=O)C(F)(F)F`, 268 to 270 °C.
As for `Cc1cc(-c2ccc(C#N)cc2)c(C#N)n1Cc1cnc(Cl)c(CO)c1`, the figure is 184 °C; as for `CN1CCC(O)(c2ccccc2[N+](=O)[O-])CC1`, 166 to 167 °C; as for `CC(=NOc1ncc(F)c(N)n1)c1ccccc1`, 163 to 165 °C.
Turning to `COc1ccc(N2CCN(c3c(C)c(C)c4c(c3-c3ccc(N(C)C)cc3)CC(C)(C)O4)CC2)cc1`, the melting point lay in the range of 177 to 179 °C.
The result for `CC(=O)CC(=S)N1N=C(c2ccc([N+](=O)[O-])cc2)c2cc3c(cc2CC1C)OCO3` (stereo unspecified) reads 178 to 185 °C; that for `Cc1cc(Cl)ccc1N=CN(C)SN(C1CCCCC1)C1CCCCC1`, 110 to 111 °C.
`COC(=O)c1ccc2c(c1)c(=O)n(Cc1ccccc1)c(=O)n2C` showed a melting point of 179 °C.
The result for `COc1ccccc1C(O)c1cc(Br)cc(Br)c1` (stereo unspecified) reads 112 to 116 °C; that for `O=C(O)C(=O)Nc1coc2ccccc2c1=O`, 195 to 197 °C.
As for `COC(=O)c1cc(-c2c(OC)cccc2OC)n(-c2ccc(NS(=O)(=O)c3ccc(C)cc3)cc2CC(C)C)n1`, the figure is 224 °C; as for `COc1cccc2c1C=C(C#N)CC2`, 66 to 68 °C.
As for `Cc1nc(C#Cc2ccccc2)sc1C`, the figure is 55 to 60 °C.
As for `COC(=O)C1C(=O)NC(C)C1c1c(Cl)cccc1Cl` (stereo unspecified), the melting point was in the range of 157 to 158 °C.
As for `CCCCC12CCC3C4=C(CCC3C1CCC2O)CC(OC)=CC4` (stereo unspecified), the figure is 135 to 139 °C.
As for `COc1cc2c(cc1OC)CC(NC(=O)N(C)O)C2`, the figure is 165 to 166 °C; as for `O=C(O)CCC(=O)C(=O)Nc1ccccc1`, 192 to 193 °C.
As to `CCN(CC)CCOc1ccc(Nc2ncc3c(n2)N(C)C(=O)N(c2c(C)cccc2C)C3)cc1`, the melting point was determined as 58 °C.
In turn, `COC1(c2cc(F)cc(Sc3ccc(C(=NO)C(F)(F)F)cc3)c2)CCOCC1` gave a melting point of 131 to 133 °C.
As for `CCOC(=O)c1cn(C)c2c(=O)c3cc(Cl)ccc3oc2c1=O`, the figure is 295 to 297 °C.
The result for `CN1C(=O)[C@H](NC(=O)CCc2ccc(C#N)cc2)N=C(c2ccccc2)c2ccccc21` reads 81 to 85 °C.
As for `O=S(=O)(C(=CNc1cccc(NC=C(S(=O)(=O)c2ccccc2)S(=O)(=O)c2ccccc2)n1)S(=O)(=O)c1ccccc1)c1ccccc1`, the figure is 299 to 300 °C; as for `CC(=O)Nc1nc(-c2ccc(NS(C)(=O)=O)c(Oc3ccc(F)cc3F)c2)cs1`, 192 to 193 °C.
`N#Cc1ccc(-c2sc(N)c(C(=O)c3ccc(Cl)cc3)c2CN(C2CCCCC2)C2CCCCC2)cc1` displayed a melting point of 196 to 200 °C.
In the case of `CCN=C(NCc1ccccc1)NN=Cc1c(Cl)cccc1Cl`, the melting point is 101 to 103 °C.
The result for `CCCCCCCCCCCCCCCCCNC(=O)OC[C@@H]1CO[C@@H](COC(=O)NCc2ccccn2)C1` (relative stereo) reads 52.7 to 54.8 °C; that for `O=c1[nH]c(-c2ccc(Cl)cc2)c(CN2CCOCC2)s1`, 206 °C.
The result for `CCCCCCCCCCCCCCOc1ccc(CC(=O)Nc2ccc(CBr)cc2)cc1` reads 110 to 115 °C; that for `CCOc1ncc(I)cc1C(=O)OC`, 67 to 69 °C; that for `CC(=O)Nc1ccc2c3c1c(=O)c(C(=O)O)cn3C(C)CC2` (stereo unspecified), 277 to 279 °C.
As for `CC(C)C[C@H](NC(=O)[C@H](Cc1c[nH]cn1)NC(=O)C(CC(=O)NCCc1ccccc1)Cc1cccc2ccccc12)[C@@H](O)CCO` (stereo partly specified), the melting point lay within 87 to 92 °C.
As for `CC(C)(C)OC(=O)/C(=C/c1ccc(Br)cc1)C(=O)c1ccccc1O`, the figure is 98 to 100 °C.
Compound `CC#Cc1cc(C)nc(Nc2ccc(F)cc2)n1` came in with a melting point of 138 to 140 °C.
The result for `O=C1CCCc2nc3ccccc3c(NCc3ccccc3F)c21` reads 164 °C; that for `CC(C)C(=O)c1ccc2oc3ncccc3c(=O)c2c1`, 155 to 156 °C.
As to `CC1(C)CCc2c(N3CCOCC3)nc3sc4c(NCCN5CCOCC5)ncnc4c3c21`, the melting point lay within 100 to 101 °C.
`Cc1nc2cc(OCCO)ccc2s1`: the melting point was in the range of 67 to 68 °C.
The result for `Cn1c(=O)n(Cc2cccnc2)c2ccccc21` reads 90 °C; that for `CN(C)CCCOc1ccc(N(C(=O)c2ccc([N+](=O)[O-])cc2)c2ccccc2)cc1`, 89.5 to 92.5 °C.
